Source: paper PMC7615311 (Science (New York, N.Y.), 2023)
Blank lines part the entries; values can stand above or below the compound they belong to.

What was measured:
HeLa cells [1] = assay: decryptM phosphoproteome profiling in HeLa cells; type: cell-based, human
HeLa cells [2] = assay: decryptM protein acetylation profiling in HeLa cells; type: cell-based, human
SNRNP40 = assay: decryptM, acetylation of SNRNP40 in HeLa cells; type: cell-based, human; conditions: read-out: EC50 of SNRNP40 acetylation site
CBP and p300 = assay: decryptM; type: cell-based, human; conditions: read-out: EC50 of inhibition of (auto-)acetylation sites on CBP and p300; HeLa
SU-DHL-4 cells [3] = assay: FACS analysis of cytotoxicity; type: cell-based, human; conditions: SU-DHL-4, FACS
cortactin (CTTN) = assay: decryptM, acetylation of HDAC6 substrate cortactin in HeLa cells; type: cell-based, human; conditions: within the tested dose range
ATR = ATR (Homo sapiens, UniProt Q13535); assay: Kinobeads assay, ATR; type: binding
ATR, sequence (Q13535 whole entry): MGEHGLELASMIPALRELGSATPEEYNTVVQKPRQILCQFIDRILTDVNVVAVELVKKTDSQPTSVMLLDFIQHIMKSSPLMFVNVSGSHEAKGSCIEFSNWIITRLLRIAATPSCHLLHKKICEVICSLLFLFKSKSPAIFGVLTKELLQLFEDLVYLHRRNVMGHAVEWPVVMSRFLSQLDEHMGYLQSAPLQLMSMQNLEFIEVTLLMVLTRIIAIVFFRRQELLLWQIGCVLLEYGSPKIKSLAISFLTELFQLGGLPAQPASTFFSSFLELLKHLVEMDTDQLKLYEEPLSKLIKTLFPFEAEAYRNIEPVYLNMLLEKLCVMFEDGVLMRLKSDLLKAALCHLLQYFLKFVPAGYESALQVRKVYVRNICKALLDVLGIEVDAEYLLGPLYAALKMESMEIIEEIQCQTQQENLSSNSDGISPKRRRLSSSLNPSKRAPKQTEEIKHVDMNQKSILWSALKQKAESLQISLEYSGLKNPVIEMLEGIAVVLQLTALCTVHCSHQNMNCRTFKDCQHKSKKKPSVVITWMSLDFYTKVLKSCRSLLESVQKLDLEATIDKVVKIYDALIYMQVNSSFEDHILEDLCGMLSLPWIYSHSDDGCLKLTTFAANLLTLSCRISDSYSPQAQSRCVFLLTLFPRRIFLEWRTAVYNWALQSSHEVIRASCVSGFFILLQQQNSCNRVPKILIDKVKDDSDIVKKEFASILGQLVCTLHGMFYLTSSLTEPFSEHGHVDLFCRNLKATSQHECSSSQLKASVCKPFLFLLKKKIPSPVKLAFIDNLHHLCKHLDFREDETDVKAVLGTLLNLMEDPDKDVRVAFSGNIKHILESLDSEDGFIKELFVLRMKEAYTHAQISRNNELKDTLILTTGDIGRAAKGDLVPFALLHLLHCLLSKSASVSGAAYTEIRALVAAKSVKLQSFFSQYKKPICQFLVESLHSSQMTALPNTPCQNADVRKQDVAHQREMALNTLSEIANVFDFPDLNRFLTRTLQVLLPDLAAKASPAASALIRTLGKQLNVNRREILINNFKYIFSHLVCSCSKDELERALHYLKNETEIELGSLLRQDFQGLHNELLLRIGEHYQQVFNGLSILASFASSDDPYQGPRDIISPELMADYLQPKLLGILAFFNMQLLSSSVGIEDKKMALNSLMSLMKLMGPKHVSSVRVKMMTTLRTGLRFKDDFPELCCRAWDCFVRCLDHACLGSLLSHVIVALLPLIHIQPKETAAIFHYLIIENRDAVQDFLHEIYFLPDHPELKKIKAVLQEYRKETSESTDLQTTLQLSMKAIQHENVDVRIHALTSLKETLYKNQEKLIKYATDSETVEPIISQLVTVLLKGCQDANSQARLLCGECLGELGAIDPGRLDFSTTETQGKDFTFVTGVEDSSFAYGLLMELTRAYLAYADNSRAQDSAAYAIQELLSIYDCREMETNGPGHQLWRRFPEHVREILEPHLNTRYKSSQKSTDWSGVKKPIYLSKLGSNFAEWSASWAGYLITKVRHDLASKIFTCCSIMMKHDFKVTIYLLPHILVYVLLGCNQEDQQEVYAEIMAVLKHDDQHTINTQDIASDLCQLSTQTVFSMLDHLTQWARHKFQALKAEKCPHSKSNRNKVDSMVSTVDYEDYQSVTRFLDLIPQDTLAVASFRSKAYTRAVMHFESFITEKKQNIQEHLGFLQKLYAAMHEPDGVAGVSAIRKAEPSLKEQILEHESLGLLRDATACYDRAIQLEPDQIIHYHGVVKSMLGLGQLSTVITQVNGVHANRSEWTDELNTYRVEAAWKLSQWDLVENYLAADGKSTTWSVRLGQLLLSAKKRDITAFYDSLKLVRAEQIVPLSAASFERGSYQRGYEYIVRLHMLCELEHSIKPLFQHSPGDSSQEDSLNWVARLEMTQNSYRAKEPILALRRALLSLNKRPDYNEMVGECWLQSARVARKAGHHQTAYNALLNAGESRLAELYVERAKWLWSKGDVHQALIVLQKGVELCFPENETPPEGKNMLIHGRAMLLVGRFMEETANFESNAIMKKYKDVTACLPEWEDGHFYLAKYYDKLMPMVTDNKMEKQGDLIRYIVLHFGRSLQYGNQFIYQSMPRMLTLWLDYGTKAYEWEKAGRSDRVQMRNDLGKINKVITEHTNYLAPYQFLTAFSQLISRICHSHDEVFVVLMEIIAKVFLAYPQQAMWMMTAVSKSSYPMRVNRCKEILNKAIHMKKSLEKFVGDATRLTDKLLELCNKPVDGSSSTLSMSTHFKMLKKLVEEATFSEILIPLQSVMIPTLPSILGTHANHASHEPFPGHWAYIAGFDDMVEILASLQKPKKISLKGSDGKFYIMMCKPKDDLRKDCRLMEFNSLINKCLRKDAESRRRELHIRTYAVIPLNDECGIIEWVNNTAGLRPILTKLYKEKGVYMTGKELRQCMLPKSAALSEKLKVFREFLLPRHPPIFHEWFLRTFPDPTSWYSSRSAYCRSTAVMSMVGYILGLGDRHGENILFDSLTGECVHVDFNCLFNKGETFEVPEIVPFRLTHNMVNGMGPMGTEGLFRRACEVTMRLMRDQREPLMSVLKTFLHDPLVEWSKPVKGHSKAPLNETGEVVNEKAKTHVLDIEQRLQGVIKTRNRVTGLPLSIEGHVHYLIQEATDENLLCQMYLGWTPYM

MDA-MB-175 cells = assay: decryptM phosphoproteome profiling in MDA-MB-175 cells; type: cell-based, human
BT-474 cells = assay: decryptM phosphoproteome profiling in BT-474 cells; type: cell-based, human
BT-474 = assay: growth reduction, BT-474; type: cell-based; conditions: Homo sapiens, BT-474, read-out: reduced growth
AKT1S1 = assay: decryptM, pT246 on AKT1S1 in SK-BR-3 cells; type: cell-based; conditions: Homo sapiens, SK-BR-3, read-out: potency of inhibition of pT246 on AKT1S1
SK-BR-3 = assay: growth reduction, SK-BR-3; type: cell-based; conditions: Homo sapiens, SK-BR-3, read-out: reduced growth
MDA-MB-175 = assay: growth reduction, MDA-MB-175; type: cell-based; conditions: Homo sapiens, read-out: reduced growth
SK-BR-3 cells = assay: decryptM phosphoproteome profiling in SK-BR-3 cells; type: cell-based, human
SHC1 = assay: decryptM, pY427 on SHC1 in SK-BR-3 cells; type: cell-based; conditions: Homo sapiens, SK-BR-3, read-out: potency of inhibition of pY427 on SHC1
A549 lung cancer cells = assay: decryptM phosphoproteome profiling in A549 cells; type: cell-based, human
[4] = tested on: KYSE-520 esophageal squamous cell carcinoma cell line; assay: decryptM phosphoproteome profiling in KYSE-520 cells; type: cell-based, human; conditions: KYSE-520, 30 min
[5] = tested on: K562 chronic myelogenous leukemia cells; assay: decryptM phosphoproteome profiling in K562 cells; type: cell-based, human; conditions: for number of regulated phosphopeptides: K562, 30 min drug treatment
SU-DHL-4 cells [6] = type: cell-based, human; conditions: SU-DHL-4, live cell imaging
[7] = tested on: ARH-77 plasma leukemia line; assay: viability assay, ARH-77; type: cell-based, human
SU-DHL-4 cells [8] = assay: two-dimensional decryptM phosphoproteome analysis in SU-DHL-4; type: cell-based, human; conditions: dose-response at eight time points between 0 min and 24 h
Ramos cells = assay: two-dimensional decryptM phosphoproteome analysis in Ramos; type: cell-based, human; conditions: dose-response at eight time points between 0 min and 24 h
[9] = tested on: SU-DHL-4 (B-cell lymphoma); assay: viability assay, SU-DHL-4; type: cell-based, human
SYK = assay: decryptM, phosphorylation of SYK in SU-DHL-4; type: cell-based, human
MKI67 = assay: decryptM, phosphorylation of MKI67 in SU-DHL-4; type: cell-based, human
[10] = tested on: Ramos (Burkitt's Lymphoma); assay: viability assay, Ramos; type: cell-based, human
RFTN1 = assay: decryptM, RFTN1 phosphorylation at S467 in SU-DHL-4; type: cell-based, human
ARH-77 cells = assay: two-dimensional decryptM phosphoproteome analysis in ARH-77; type: cell-based, human; conditions: dose-response at eight time points between 0 min and 24 h

EC50 (SNRNP40): 0.05 µM
EC50 (CBP and p300): 0.05 to 0.2 µM
Compound: CNC(=O)Nc1ccc2c(c1)CC[C@@]21OC(=O)N(CC(=O)N(Cc2ccc(F)cc2)[C@@H](C)C(F)(F)F)C1=O [A485]
impact on the phosphoproteome (HeLa cells [1]): did not have much impact
number of downregulated acetylated peptides (HeLa cells [2]): 59

Compound: O=C1/C(=C/c2ccccc2)C(NC2CCCCC2)c2ccccc21 (stereo not shown) [BCI]
cell killing by the drug alone (SU-DHL-4 cells [3]): effective in killing cells

Compound: C#Cc1cccc(Nc2ncnc3cc(OC)c(OCCCCCCC(=O)NO)cc23)c1 [CUDC-101]
effect on CTTN acetylation (cortactin (CTTN)): only at substantially higher concentrations
higher affinity for HDAC targets than for kinase targets in cells (HeLa cells [2]; acetylated vs phosphorylated peptides): 100 fold
number of upregulated acetylated peptides (HeLa cells [2]; of the 1,133 measured acetylated peptides): 139

Kd (ATR): 0.091 µM
Compound: Cn1c(=O)n(-c2ccc(C(C)(C)C#N)cc2)c2c3cc(-c4cnc5ccccc5c4)ccc3ncc21 [Dactolisib]

EC50 (BT-474): 0.158 µM
EC50 (AKT1S1): 0.011 µM
EC50 (SK-BR-3): 0.234 µM
EC50 (MDA-MB-175): 0.695 µM
EC50 (SHC1): 0.018 µM
Compound: CS(=O)(=O)CCNCc1ccc(-c2ccc3ncnc(Nc4ccc(OCc5cccc(F)c5)c(Cl)c4)c3c2)o1 [Lapatinib]
number of regulated phosphopeptides (MDA-MB-175 cells): hundreds
number of regulated phosphopeptides (BT-474 cells): hundreds
number of regulated phosphopeptides (SK-BR-3 cells): five

phosphorylation of the AKT substrates AKT1S1 (T2469) and GSK3B (S9) (A549 lung cancer cells): reduced phosphorylation
Compound: NC1(c2ccc(-c3nc4ccn5c(=O)[nH]nc5c4cc3-c3ccccc3)cc2)CCC1 [MK-2206]
ERK1 activity via phosphorylation at Y187 (A549 lung cancer cells): induced ERK1 activity

Compound: CC1(N)CCN(c2cnc(-c3cccc(Cl)c3Cl)c(N)n2)CC1 [SHP099]
phosphorylation of the EGFR substrate GAB1 [4]: diminished in a dose-dependent fashion
phosphorylation sites indicating EGFR activity [4]: does not inhibit

EC50 ([5]; Homo sapiens, K562, 0.5 h, read-out: EC50 of potently regulated phosphopeptides): < 0.1 µM
Compound: Nc1ccn([C@@H]2O[C@H](CO)[C@@H](O)[C@@H]2O)c(=O)n1 [cytarabine]
number of regulated phosphopeptides [5]: 23

Compound: COc1cc(Nc2ncc(F)c(Nc3ccc4c(n3)N(COP(=O)(O)O)C(=O)C(C)(C)O4)n2)cc(OC)c1OC [fostamatinib]
effect of inhibitor pre-treatment on RTX-mediated cytotoxicity (SU-DHL-4 cells [6]): clear reduction of RTX-mediated cytotoxicity
effect of combination on cytotoxic effect of RTX (SU-DHL-4 cells [3]): diminished the cytotoxic effect of RTX

Compound: CC(=O)O[C@H]1C(=O)[C@@]2(C)[C@H]([C@H](OC(=O)c3ccccc3)[C@]3(O)C[C@H](OC(=O)[C@H](O)[C@@H](NC(=O)c4ccccc4)c4ccccc4)C(C)=C1C3(C)C)[C@]1(OC(C)=O)CO[C@@H]1C[C@@H]2O [paclitaxel]
number of regulated phosphopeptides [5]: 7

Compound: C/C=C1\NC(=O)[C@H]2CSSCC/C=C/[C@H](CC(=O)N[C@H](C(C)C)C(=O)N2)OC(=O)[C@H](C(C)C)NC1=O [romidepsin]
effect on CTTN acetylation (cortactin (CTTN)): no effect
response of the phosphoproteome (HeLa cells [1]; after 16 hours): broad and potent response

Compound: Cn1cnc2c(F)c(Nc3ccc(Br)cc3Cl)c(C(=O)NOCCO)cc21 [selumetinib]
ERK phosphorylation (A549 lung cancer cells): abrogated ERK phosphorylation
phosphorylation of the AKT substrate BAD at S99 (A549 lung cancer cells): induced phosphorylation

Compound: CN[C@@H]1C[C@H]2O[C@@](C)([C@@H]1OC)n1c3ccccc3c3c4c(c5c6ccccc6n2c5c31)C(=O)NC4 [staurosporine]
number of regulated phosphopeptides (A549 lung cancer cells): ~2500

Compound: CC(=O)Nc1cccc(-n2c(=O)n(C3CC3)c(=O)c3c(Nc4ccc(I)cc4F)n(C)c(=O)c(C)c32)c1 [trametinib]
effect of inhibitor pre-treatment on RTX-mediated cytotoxicity (SU-DHL-4 cells [6]): clear reduction of RTX-mediated cytotoxicity

Compound: O=C(CCCCCCC(=O)Nc1ccccc1)NO [vorinostat]
effect on protein phosphorylation (HeLa cells [1]; within 4 hours): no noticeable effect

Compound: RTX: antibody for treatment of B-cell malignancies targeting MS4A1 (CD20)
sensitivity in viability assay [7]: insensitive
phosphoproteome response (SU-DHL-4 cells [8]): massive responses
phosphoproteome response (Ramos cells): massive responses
sensitivity in viability assay [9]: sensitive
upregulation of phosphorylation of SYK (SYK): > 10 fold
downregulation of phosphorylation on the proliferation marker MKI67 (MKI67): > 10 x
sensitivity in viability assay [10]: sensitive
increase of RFTN1 phosphorylation at S467 (RFTN1; SU-DHL-4, within 2 min): 10 fold
increase of RFTN1 phosphorylation at S467 (RFTN1; SU-DHL-4, within 5 min): 30 fold
phosphoproteome response (ARH-77 cells): silent

Compound: pertuzumab: breast cancer therapeutic antibody blocking signaling by preventing HER2-HER3 dimerization
number of regulated phosphopeptides (MDA-MB-175 cells): ~ 150
number of regulated phosphopeptides (BT-474 cells): ~ 150
number of regulated phosphopeptides (SK-BR-3 cells): ~ 30
